According to ChEMBL document CHEMBL4507294, “Data for DCP probe MSD-CYP11B2” (2021):

What was measured:
[1] = test system: Tyrosine-protein kinase ABL1 (Homo sapiens), P00519 [M351T]; details: Compound concentration 1000.0 nM
[2] = biological target: Activin receptor type-1 (Homo sapiens) (UniProt Q04771); details: Compound concentration 1000.0 nM
[3] = biological target: Atypical kinase COQ8B, mitochondrial (Homo sapiens) (UniProt Q96D53); details: Compound concentration 1000.0 nM
[4] = biological target: ALK tyrosine kinase receptor (Homo sapiens) (UniProt Q9UM73); details: Compound concentration 1000.0 nM
[5] = biological target: Mitogen-activated protein kinase kinase kinase 6 (Homo sapiens) (UniProt O95382); details: Compound concentration 1000.0 nM
[6] = biological target: Tyrosine-protein kinase receptor UFO (Homo sapiens) (UniProt P30530); details: Compound concentration 1000.0 nM
[7] = biological target: Serine/threonine-protein kinase BRSK2 (Homo sapiens) (UniProt Q8IWQ3); details: Compound concentration 1000.0 nM
[8] = biological target: Calcium/calmodulin-dependent protein kinase kinase 1 (Homo sapiens) (UniProt Q8N5S9); details: Compound concentration 1000.0 nM
[9] = biological target: Serine/threonine-protein kinase DCLK1 (Homo sapiens) (UniProt O15075); details: Compound concentration 1000.0 nM
[10] = biological target: Ephrin type-A receptor 3 (Homo sapiens) (UniProt P29320); details: Compound concentration 1000.0 nM
[11] = biological target: Ephrin type-A receptor 6 (Homo sapiens) (UniProt Q9UF33); details: Compound concentration 1000.0 nM
[12] = biological target: Ephrin type-B receptor 3 (Homo sapiens) (UniProt P54753); details: Compound concentration 1000.0 nM
[13] = biological target: Receptor tyrosine-protein kinase erbB-3 (Homo sapiens) (UniProt P21860); details: Compound concentration 1000.0 nM
[14] = test system: Receptor-type tyrosine-protein kinase FLT3 (Homo sapiens), P36888 [N841I]; details: Compound concentration 1000.0 nM
[15] = test system: Receptor-type tyrosine-protein kinase FLT3 (Homo sapiens), P36888 [R834Q]; details: Compound concentration 1000.0 nM
[16] = biological target: G protein-coupled receptor kinase 3 (Homo sapiens) (UniProt P35626); details: Compound concentration 1000.0 nM
[17] = biological target: Tyrosine-protein kinase HCK (Homo sapiens) (UniProt P08631); details: Compound concentration 1000.0 nM
[18] = biological target: Homeodomain-interacting protein kinase 3 (Homo sapiens) (UniProt Q9H422); details: Compound concentration 1000.0 nM
[19] = biological target: Insulin-like growth factor 1 receptor (Homo sapiens) (UniProt P08069); details: Compound concentration 1000.0 nM
[20] = biological target: Insulin receptor (Homo sapiens) (UniProt P06213); details: Compound concentration 1000.0 nM
[21] = biological target: Interleukin-1 receptor-associated kinase 4 (Homo sapiens) (UniProt Q9NWZ3); details: Compound concentration 1000.0 nM
[22] = biological target: Tyrosine-protein kinase Lyn (Homo sapiens) (UniProt P07948); details: Compound concentration 1000.0 nM
[23] = biological target: Mitogen-activated protein kinase kinase kinase 3 (Homo sapiens) (UniProt Q99759); details: Compound concentration 1000.0 nM
[24] = biological target: Serine/threonine-protein kinase MARK2 (Homo sapiens) (UniProt Q7KZI7); details: Compound concentration 1000.0 nM
[25] = biological target: Mitogen-activated protein kinase kinase kinase 10 (Homo sapiens) (UniProt Q02779); details: Compound concentration 1000.0 nM
[26] = biological target: Myosin light chain kinase, smooth muscle (Homo sapiens) (UniProt Q15746); details: Compound concentration 1000.0 nM
[27] = biological target: Serine/threonine-protein kinase NIM1 (Homo sapiens) (UniProt Q8IY84); details: Compound concentration 1000.0 nM
[28] = biological target: Serine/threonine-protein kinase PAK 2 (Homo sapiens) (UniProt Q13177); details: Compound concentration 1000.0 nM
[29] = test system: Phosphatidylinositol 4,5-bisphosphate 3-kinase catalytic subunit alpha isoform (Homo sapiens), P42336 [C420R]; details: Compound concentration 1000.0 nM
[30] = biological target: 1-phosphatidylinositol 3-phosphate 5-kinase (Homo sapiens) (UniProt Q9Y2I7); details: Compound concentration 1000.0 nM
[31] = biological target: Serine/threonine-protein kinase PRP4 homolog (Homo sapiens) (UniProt Q13523); details: Compound concentration 1000.0 nM
[32] = biological target: Proto-oncogene tyrosine-protein kinase receptor Ret (Homo sapiens) (UniProt P07949); details: Compound concentration 1000.0 nM
[33] = biological target: NUAK family SNF1-like kinase 2 (Homo sapiens) (UniProt Q9H093); details: Compound concentration 1000.0 nM
[34] = biological target: Proto-oncogene tyrosine-protein kinase Src (Homo sapiens) (UniProt P12931); details: Compound concentration 1000.0 nM
[35] = biological target: TGF-beta receptor type-1 (Homo sapiens) (UniProt P36897); details: Compound concentration 1000.0 nM
[36] = biological target: Transient receptor potential cation channel subfamily M member 6 (Homo sapiens) (UniProt Q9BX84); details: Compound concentration 1000.0 nM
[37] = biological target: Serine/threonine-protein kinase WNK2 (Homo sapiens) (UniProt Q9Y3S1); details: Compound concentration 1000.0 nM
[38] = biological target: Serine/threonine-protein kinase 32C (Homo sapiens) (UniProt Q86UX6); details: Compound concentration 1000.0 nM
[39] = biological target: Mitogen-activated protein kinase kinase kinase 19 (Homo sapiens) (UniProt Q56UN5); details: Compound concentration 1000.0 nM
[40] = biological target: Mitogen-activated protein kinase kinase kinase 20 (Homo sapiens) (UniProt Q9NYL2); details: Compound concentration 1000.0 nM
[41] = biological target: 5-hydroxytryptamine receptor 1A (Homo sapiens) (UniProt P08908); details: Compound concentration 10.0 uM
[42] = biological target: 5-hydroxytryptamine receptor 2B (Homo sapiens, UniProt P41595); details: Compound concentration 10.0 uM
[43] = biological target: 5-hydroxytryptamine receptor 7 (Homo sapiens) (UniProt P34969); details: Compound concentration 10.0 uM
[44] = biological target: GABA-A receptor; anion channel (Rattus norvegicus) (UniProt O09028+P15431+P18506+P18508+P19969+P20236+P23574+P23576+P28471+P28473+P30191+P62813+P63079+P63138+Q91ZM7+Q9ES14); details: Compound concentration 10.0 uM

Sequence of Insulin-like growth factor 1 receptor (Homo sapiens) (P08069 31-736 limits assumed): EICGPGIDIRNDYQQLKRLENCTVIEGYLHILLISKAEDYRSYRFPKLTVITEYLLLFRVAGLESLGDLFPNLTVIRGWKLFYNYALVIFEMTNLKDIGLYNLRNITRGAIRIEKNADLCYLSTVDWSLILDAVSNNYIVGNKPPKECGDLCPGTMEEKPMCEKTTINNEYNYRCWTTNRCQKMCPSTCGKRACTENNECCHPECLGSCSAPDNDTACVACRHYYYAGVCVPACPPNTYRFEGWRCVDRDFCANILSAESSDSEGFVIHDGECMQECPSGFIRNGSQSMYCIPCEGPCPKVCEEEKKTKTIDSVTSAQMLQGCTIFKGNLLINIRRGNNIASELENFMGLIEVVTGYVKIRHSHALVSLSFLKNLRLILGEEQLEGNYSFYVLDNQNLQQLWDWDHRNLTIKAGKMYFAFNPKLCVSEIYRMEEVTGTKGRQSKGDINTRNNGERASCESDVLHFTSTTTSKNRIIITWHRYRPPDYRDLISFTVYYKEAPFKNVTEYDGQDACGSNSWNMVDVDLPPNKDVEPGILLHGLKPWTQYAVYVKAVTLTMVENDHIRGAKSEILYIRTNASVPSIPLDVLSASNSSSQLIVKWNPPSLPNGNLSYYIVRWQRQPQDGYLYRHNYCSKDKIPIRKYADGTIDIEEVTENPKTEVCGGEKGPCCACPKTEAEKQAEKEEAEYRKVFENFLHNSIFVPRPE
Sequence of Insulin-like growth factor 1 receptor (Homo sapiens) (P08069 741-1367 limits assumed): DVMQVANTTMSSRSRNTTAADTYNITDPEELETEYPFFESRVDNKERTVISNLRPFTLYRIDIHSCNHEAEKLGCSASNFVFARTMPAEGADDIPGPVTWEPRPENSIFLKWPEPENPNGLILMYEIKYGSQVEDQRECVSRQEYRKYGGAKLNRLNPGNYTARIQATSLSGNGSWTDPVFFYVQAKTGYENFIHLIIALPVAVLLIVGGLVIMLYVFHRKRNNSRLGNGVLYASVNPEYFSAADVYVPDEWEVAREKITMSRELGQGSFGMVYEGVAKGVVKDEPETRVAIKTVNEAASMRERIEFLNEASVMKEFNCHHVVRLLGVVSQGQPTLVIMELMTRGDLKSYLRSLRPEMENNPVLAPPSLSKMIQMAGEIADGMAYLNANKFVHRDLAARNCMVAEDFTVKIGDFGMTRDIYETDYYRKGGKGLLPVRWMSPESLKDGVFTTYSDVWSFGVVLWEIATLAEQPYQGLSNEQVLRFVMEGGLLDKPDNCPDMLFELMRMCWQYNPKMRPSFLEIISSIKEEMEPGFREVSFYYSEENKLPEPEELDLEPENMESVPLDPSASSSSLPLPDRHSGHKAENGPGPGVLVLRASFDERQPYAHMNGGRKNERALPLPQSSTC
Sequence of 5-hydroxytryptamine receptor 1A (Homo sapiens) (P08908 whole entry): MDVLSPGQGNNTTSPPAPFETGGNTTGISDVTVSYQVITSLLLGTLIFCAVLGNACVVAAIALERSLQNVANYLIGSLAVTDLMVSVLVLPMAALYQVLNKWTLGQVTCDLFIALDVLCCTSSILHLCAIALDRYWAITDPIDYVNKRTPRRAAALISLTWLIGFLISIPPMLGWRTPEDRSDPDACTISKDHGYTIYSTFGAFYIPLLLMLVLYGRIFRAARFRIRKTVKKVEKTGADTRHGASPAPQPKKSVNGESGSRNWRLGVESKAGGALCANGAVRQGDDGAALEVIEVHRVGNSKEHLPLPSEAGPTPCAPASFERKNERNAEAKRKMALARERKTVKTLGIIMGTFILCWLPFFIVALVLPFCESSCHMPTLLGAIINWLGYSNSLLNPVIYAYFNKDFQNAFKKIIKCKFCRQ
Sequence of Tyrosine-protein kinase receptor UFO (Homo sapiens) (P30530 whole entry): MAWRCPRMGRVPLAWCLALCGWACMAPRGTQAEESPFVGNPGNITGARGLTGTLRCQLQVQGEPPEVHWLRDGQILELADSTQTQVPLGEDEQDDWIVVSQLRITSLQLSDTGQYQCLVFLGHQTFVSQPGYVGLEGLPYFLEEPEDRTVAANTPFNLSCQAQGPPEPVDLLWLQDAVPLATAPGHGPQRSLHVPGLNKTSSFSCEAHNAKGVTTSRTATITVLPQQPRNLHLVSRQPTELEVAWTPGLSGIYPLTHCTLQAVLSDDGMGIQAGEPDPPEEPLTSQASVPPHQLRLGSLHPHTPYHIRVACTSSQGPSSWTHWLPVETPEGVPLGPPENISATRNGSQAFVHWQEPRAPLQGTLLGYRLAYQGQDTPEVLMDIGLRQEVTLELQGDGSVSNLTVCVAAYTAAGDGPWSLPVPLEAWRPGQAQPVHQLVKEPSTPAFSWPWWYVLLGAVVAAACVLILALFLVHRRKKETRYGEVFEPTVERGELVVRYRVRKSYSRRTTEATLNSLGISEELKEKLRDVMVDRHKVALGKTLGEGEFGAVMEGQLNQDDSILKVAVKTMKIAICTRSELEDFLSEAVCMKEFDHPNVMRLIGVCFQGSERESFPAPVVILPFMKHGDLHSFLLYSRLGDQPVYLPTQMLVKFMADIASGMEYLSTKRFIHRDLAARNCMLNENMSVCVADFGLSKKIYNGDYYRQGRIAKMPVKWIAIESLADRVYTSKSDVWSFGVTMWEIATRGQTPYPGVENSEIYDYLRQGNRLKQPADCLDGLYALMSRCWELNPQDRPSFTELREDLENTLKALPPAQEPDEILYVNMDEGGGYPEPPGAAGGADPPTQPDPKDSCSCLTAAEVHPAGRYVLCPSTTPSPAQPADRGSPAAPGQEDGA
Sequence of NUAK family SNF1-like kinase 2 (Homo sapiens) (Q9H093 whole entry): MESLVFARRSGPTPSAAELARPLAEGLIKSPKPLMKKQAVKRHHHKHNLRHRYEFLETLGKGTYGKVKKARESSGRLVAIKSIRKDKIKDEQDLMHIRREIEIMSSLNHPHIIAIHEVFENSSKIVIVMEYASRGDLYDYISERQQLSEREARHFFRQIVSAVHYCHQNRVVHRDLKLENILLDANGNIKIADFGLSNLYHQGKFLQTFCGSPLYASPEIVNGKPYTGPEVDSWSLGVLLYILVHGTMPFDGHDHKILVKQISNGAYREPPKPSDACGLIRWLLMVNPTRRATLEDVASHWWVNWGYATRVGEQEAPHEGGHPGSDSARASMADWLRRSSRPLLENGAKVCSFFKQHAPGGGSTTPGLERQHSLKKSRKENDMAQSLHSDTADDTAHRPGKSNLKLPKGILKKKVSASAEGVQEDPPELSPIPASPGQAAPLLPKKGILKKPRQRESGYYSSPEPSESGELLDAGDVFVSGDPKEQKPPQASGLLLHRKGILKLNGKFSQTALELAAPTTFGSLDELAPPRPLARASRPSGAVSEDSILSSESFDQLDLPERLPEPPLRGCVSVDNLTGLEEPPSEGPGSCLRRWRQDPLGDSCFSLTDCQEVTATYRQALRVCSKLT
Sequence of Receptor tyrosine-protein kinase erbB-3 (Homo sapiens) (P21860 whole entry): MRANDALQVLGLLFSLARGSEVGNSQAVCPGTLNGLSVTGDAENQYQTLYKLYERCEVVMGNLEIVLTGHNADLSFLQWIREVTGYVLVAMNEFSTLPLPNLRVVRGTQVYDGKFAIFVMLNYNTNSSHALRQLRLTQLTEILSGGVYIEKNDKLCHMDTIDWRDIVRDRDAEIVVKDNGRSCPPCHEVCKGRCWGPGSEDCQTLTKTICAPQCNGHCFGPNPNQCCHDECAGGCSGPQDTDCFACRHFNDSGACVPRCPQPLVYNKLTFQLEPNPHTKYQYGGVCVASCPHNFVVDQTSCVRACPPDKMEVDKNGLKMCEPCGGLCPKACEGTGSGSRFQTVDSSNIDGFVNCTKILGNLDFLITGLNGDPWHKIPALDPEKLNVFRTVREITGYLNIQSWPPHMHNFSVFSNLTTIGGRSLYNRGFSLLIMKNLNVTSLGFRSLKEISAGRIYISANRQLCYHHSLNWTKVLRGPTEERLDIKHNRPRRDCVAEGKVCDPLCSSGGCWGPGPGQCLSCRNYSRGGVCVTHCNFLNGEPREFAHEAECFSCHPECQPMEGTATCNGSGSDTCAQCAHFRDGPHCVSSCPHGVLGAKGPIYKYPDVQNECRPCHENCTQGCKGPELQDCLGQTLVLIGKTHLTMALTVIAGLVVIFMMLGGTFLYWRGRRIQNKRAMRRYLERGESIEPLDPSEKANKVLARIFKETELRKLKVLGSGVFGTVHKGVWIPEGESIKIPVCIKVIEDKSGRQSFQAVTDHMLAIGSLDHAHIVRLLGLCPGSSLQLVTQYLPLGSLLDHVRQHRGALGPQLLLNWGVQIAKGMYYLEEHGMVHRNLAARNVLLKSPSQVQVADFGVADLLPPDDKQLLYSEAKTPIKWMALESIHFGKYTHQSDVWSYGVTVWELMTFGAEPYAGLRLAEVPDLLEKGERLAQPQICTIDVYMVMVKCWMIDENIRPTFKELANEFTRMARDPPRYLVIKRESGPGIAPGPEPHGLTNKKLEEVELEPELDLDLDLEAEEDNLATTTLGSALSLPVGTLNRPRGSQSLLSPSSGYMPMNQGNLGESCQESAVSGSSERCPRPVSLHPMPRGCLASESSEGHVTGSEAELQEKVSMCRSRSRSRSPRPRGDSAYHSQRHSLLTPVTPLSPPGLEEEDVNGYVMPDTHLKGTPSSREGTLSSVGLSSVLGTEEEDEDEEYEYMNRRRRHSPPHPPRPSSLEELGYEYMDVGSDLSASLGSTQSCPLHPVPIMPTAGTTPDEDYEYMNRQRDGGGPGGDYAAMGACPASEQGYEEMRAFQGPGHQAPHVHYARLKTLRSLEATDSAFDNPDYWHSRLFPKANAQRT
Sequence of Serine/threonine-protein kinase NIM1 (Homo sapiens) (Q8IY84 whole entry): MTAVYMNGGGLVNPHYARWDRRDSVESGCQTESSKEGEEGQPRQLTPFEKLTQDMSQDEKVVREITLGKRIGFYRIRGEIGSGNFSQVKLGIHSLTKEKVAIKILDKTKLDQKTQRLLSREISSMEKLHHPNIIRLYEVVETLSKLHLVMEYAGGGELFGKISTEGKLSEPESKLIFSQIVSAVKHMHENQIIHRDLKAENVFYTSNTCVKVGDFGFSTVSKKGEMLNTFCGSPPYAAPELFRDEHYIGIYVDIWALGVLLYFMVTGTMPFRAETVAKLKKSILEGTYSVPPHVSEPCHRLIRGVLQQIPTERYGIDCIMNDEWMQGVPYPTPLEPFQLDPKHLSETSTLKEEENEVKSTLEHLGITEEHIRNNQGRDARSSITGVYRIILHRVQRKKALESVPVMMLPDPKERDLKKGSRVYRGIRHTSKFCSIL

Work on `FC(F)(F)c1ccc2c(c1)nc(-c1cccnc1)n2C1CC1` [MSD-CYP11B2-Negative-control] yielded a residual activity [1] of 100%, a residual activity [2] of 100% and a residual activity [3] of 100%. For the same molecule, the residual activity [4] was 100%, the residual activity [5] was 100% and the residual activity [6] was 100%. The residual activity [7] was 90%, the residual activity [8] was 100% and the residual activity [9] was 84%. For the same molecule, the residual activity [10] was 100%, the residual activity [11] was 100% and the residual activity [12] was 100%. For the same molecule, the residual activity [13] was 77%, the residual activity [14] was 100% and the residual activity [15] was 100%. For the same molecule, the residual activity [16] was 76%, the residual activity [17] was 100% and the residual activity [18] was 100%. It also gave a residual activity [19] of 100%, a residual activity [20] of 100% and a residual activity [21] of 100%. For the same molecule, the residual activity [22] was 82%, the residual activity [23] was 100% and the residual activity [24] was 100%. For the same molecule, the residual activity [25] was 100%, the residual activity [26] was 100% and the residual activity [27] was 100%. The residual activity [28] was 100%, the residual activity [29] was 92% and the residual activity [30] was 99%. It also gave a residual activity [31] of 98%, a residual activity [32] of 99% and a residual activity [33] of 100%. It also gave a residual activity [34] of 100%, a residual activity [35] of 78% and a residual activity [36] of 100%. It also gave a residual activity [37] of 100%, a residual activity [38] of 100% and a residual activity [39] of 99%. The residual activity [40] was 100%, the inhibition [41] was 0.44% and the inhibition [42] was 79.7%. The inhibition [43] was 0.88% and the inhibition [44] was 2.02%.
`CC(C)(O)c1cncc(-c2nc3ccc(F)cc3n2C2CC2)c1` [MSD-CYP11B2] gave a residual activity [1] of 100%, a residual activity [2] of 100% and a residual activity [3] of 100%. For the same molecule, the residual activity [4] was 77%, the residual activity [5] was 100% and the residual activity [6] was 100%. The residual activity [7] was 100%, the residual activity [8] was 100% and the residual activity [9] was 88%. The residual activity [10] was 100%, the residual activity [11] was 100% and the residual activity [12] was 100%. The residual activity [13] was 80%, the residual activity [14] was 100% and the residual activity [15] was 100%. It also gave a residual activity [16] of 79%, a residual activity [17] of 100% and a residual activity [18] of 93%. For the same molecule, the residual activity [19] was 100%, the residual activity [20] was 100% and the residual activity [21] was 100%. The residual activity [22] was 100%, the residual activity [23] was 99% and the residual activity [24] was 100%. The residual activity [25] was 100%, the residual activity [26] was 80% and the residual activity [27] was 100%. The residual activity [28] was 100%, the residual activity [29] was 96% and the residual activity [30] was 99%. The residual activity [31] was 58%, the residual activity [32] was 100% and the residual activity [33] was 100%. It also gave a residual activity [34] of 100%, a residual activity [35] of 90% and a residual activity [36] of 100%. The residual activity [37] was 100%, the residual activity [38] was 100% and the residual activity [39] was 93%. It also gave a residual activity [40] of 100%, an inhibition [41] of 1.22% and an inhibition [42] of 63.1%. It also gave an inhibition [43] of -2.18% and an inhibition [44] of 16.6%.
